Measurements from a compilation of properties of binary mixtures (doi:10.1007/s10953-017-0608-9).
“And” between values parts separate entries of the source, which are not always exact repeats. Identical values can stand only once.

Test: xn = mol fraction of the nth substance listed
Settings: 101 kPa

electrical conductivity (288.15 K, x1 = 0.0001): 0.029 S/m and 0.0557 S/m | electrical conductivity (288.15 K, x1 = 0.0002): 0.0822 S/m | viscosity (288.15 K, x1 = 0.0002): 1.158 mPa·s | electrical conductivity (298.15 K, x1 = 0.0001): 0.0353 S/m and 0.0696 S/m | viscosity (298.15 K, x1 = 0.0001): 0.896 mPa·s | electrical conductivity (308.15 K, x1 = 0.0001): 0.0426 S/m and 0.0846 S/m | viscosity (308.15 K, x1 = 0.0001): 0.725 mPa·s and 0.73 mPa·s
SMILES: CCCCCCCCn1cc[n+](C)c1.[Br-] + O
